Columns and labels:
[1] = tested on: human epidermal keratinocyte cells; assay: Scratch assay (cell migration / gap closure) using human epidermal keratinocyte cells; assay type: cell-based; conditions: 0.001% sample
Description: The cell regeneration function or properties of the naringin:zinc complex were evaluated via a scratch assay using human epidermal keratinocyte cells obtained from Thermal Fisher Scientific of Gaithersburg, Md. Particularly, monolayers of keratinocyte cells were gown to full confluency in separate wells, and each well was scratched with a 1000 μl tip to create a cell-free gap. Each of the wells with the cell-free gap was then washed with 1 mL of PBS twice to remove any dead floating cells. […] Distance measurements of the gap were taken every 24 hours until the gaps fully closed.
It should be appreciated that a relatively higher value of the percentage of gap closure indicates a relatively greater repair or regeneration function.

[2] = tested on: IL-1a; assay: IL-1a assay using HaCaT cells stressed with 0.01% SDS (ELISA of cell supernatants); assay type: cell-based; conditions: 0.001% sample, 24 h pretreatment, 0.01% SDS stress 15 min, sample added again, normalized by cell viability
Description: The anti-inflammatory properties of the naringin:zinc complex was evaluated by conducting an IL-la assay using HaCaT cells. To evaluate the anti-inflammatory properties, HaCaT cells were grown into 80% confluency and pretreated for 24 hours with 1 mL of each of the following samples: (1) a culture media (control); (2) 0.001% naringin:zinc complex; and (3) 0.001% naringin alone.
After pretreating the HaCaT cells, the cells were stressed with 0.01% SDS for 15 minutes before adding another 1 mL of each of the samples (1)-(3). Each of the HaCaT cells were used to prepare cell supernatants, which were used for IL-la assays with IL-la ELISA kits.

C[C@@H]1O[C@@H](O[C@H]2[C@H](Oc3cc(O)c4c(c3)O[C@H](c3ccc(O)cc3)CC4=O)O[C@H](CO)[C@@H](O)[C@@H]2O)[C@H](O)[C@H](O)[C@H]1O [Naringin, naringin]
Cell Migration of Keratinocytes (% Active); percentage of gap closure versus the starting gap distance [1]: 58%
IL-1a level [2]: 6.6 pg/mL

— patent US11116708B2, “Personal care compositions including naringin:zinc complexes and methods for the same” (Colgate-Palmolive Company, priority 2017, dated 2021)
